Measured values from PMC5557808 (Nature Communications, 2017).
Several values for one entry are separate records, joined by “and”; a condition that tells them apart may be missing. Identical values can stand only once. Where a SMILES comes first, the peptide text is derived from it. [ ]: non-standard residue; d: D form. The star is where a group is joined. X1 = CC[N+](CC)(CC(=O)Nc1c(C)cccc1C)Cc1cccc(C(=O)*)c1; Aha = [N-]=[N+]=NCC[C@H](N)C(=O)O

Assay: Cleavage of PCL denatonium conjugate in collected saliva
Assay type: in vitro ADME, human
Conditions: agitation, mean ± s.d.
Description: Volunteers were enrolled for a cross-sectional study. One group had peri-implant disease (defined as peri-implantitis or mucositis), the other group were healthy volunteers (asymptomatic patients with at least one dental implant). Unstimulated saliva was collected using an absorbent device. Sulcus fluid was collected from the peri-implant zone using standardized, commercially available MMP-8 collection strips and sent to Dentognostics GmbH (Jena, Germany) for analysis (referred to as chair-side test). Determination of total MMP activity in saliva samples was conducted using the human MMP-8 activity assay (QuickZyme, Leiden, the Netherlands) according to the manufacturer’s instructions. Saliva samples from the cross-sectional study were incubated with D-CLAN3Q (ID #1c) in MMP-8 buffer and cleavage was analyzed by HPLC. Further details are given in the Supplementary Methods.
For the collection of sulcus fluid and saliva from peri-implant d iseased p atien ts and fro m health y volunteers, a cross-section al stud y was initiated with the patient group having either a mucositis or a per i-implantitis vs. health y control. […] In this comparative study, the ability of the sensor diagnostic was assessed to discriminate saliva collected fro m p atien ts with peri -imp lan t disease to as ymp to matic carriers of at least on e i mplant (referred to as healthy control). […]

Cleavage in saliva, healthy subjects, 5-10 min (saliva of healthy volunteers (n = 14) 1:1 with 0.1 mg/mL peptide in MMP buffer pH 6.8-7.0, 37 °C, HPLC decrease of main peak): 1.5 ± 0.8%
Cleavage in saliva, diseased subjects, 5-10 min (saliva of patients with peri-implant disease (n = 19) 1:1 with 0.1 mg/mL peptide in MMP buffer pH 6.8-7.0, 37 °C, HPLC): 4.2 ± 3.34% and < 5%
SMILES: CC[C@H](C)[C@H](NC(=O)CNC(=O)[C@H](CCC(N)=O)NC(=O)[C@@H]1CCCN1C(=O)CNC(=O)c1cccc(C[N+](CC)(CC)CC(=O)Nc2c(C)cccc2C)c1)C(=O)N[C@@H](C)C(=O)NCC(=O)N[C@@H](CCC(N)=O)C(=O)N[C@@H](CCN=[N+]=[N-])C(=O)N[C@@H](CCC(N)=O)C(=O)O [ID #1c] (X1-GPQGIAGQ[Aha]Q-OH)
